Data: US20130096067A1, “DROSOPHILA TUMOR STEM CELL MODEL AND USES THEREOF” (priority 2011, published 2013)
Numbered stars: 1 amine (or outer) side, 2 acyl side, 3 side chain; on linkers, the order of the positions; unused ones are H or OH. Bridge positions count the residues as written; N and C are the ends. Square brackets hold non-standard residues; d marks the D form. Peptide text beside a SMILES is read from it. I, II: the chains in the order shown. Actinocin(9to1) = Cc1c2oc3c(C)ccc(C(=O)[*:1])c3nc-2c(C(=O)[*:2])c(N)c1=O; NMeV = CN[C@H](C(=O)O)C(C)C; Sar = CNCC(=O)O

Columns and labels:
JNK signaling = assay: puc-LacZ reporter for JNK signaling in wild-type guts; type: in vivo, Drosophila; conditions: EC cells
Description: (§1) Flies were treated with DMSO alone as a control. […].
(§2) For example, subjecting the fly intestine to the detergent dextran sulfate sodium (DSS) or to pathogen infection, induces ECs to activate the JNK stress-related pathway and to express IL-6 related cytokines (Unpaireds/Upds) (Jiang et al., 2009; Buchon et al., 2009; Apidianakis et al., 2009). The Upds activate JAK-STAT signaling in the ISCs, driving them to overproliferate. To determine if these same pathways are activated in response to FDA anti-cancer drugs, the puc-lacZ reporter was used to monitor JNK signaling, and a Gal-4 enhancer trap to monitor expression of Upd-3, the Upd cytokine preferentially expressed in the gut in response to injury (Jiang et al., 2009).

JAK-STAT signaling = assay: upd3-GFP reporter for JAK-STAT signaling in wild-type guts; type: in vivo, Drosophila; conditions: EC cells
Description: as §1, §2

[1] = test system: Raf-1^gof intestinal tumors; conditions: for Fold: Table 3 summary of hits, Screen ICCB, luciferase relative to DMSO, fed three consecutive days in vials; for Log2 (fold) (luciferase activity, log2 of the fold difference relative to DMSO controls) / Fold (luciferase activity, fold difference relative to DMSO controls): screen of 480 ICCB compounds in vials, compounds fed to flies with one-day old Raf-1^gof tumors, assessed three days later, esg-Gal4 luciferase; for Fold (luciferase activity, fold difference relative to DMSO controls): averaged from multiple wells; for Fold (luciferase activity, fold difference relative to DMSO controls): test concentration or dose not given here; for Log2 (fold) (luciferase activity, log2 of the fold difference relative to DMSO controls): test concentration or dose not given here
[2] = test system: Raf-1^gof intestinal tumors; assay: Luciferase screen of FDA-approved (NCI) drugs in 96-well plates, flies with Raf-1^gof intestinal tumors; type: in vivo, Drosophila; conditions: for Avg (3 + 6): average of Day 3 and Day 6 fold; for Day 6 Fold: six-day protocol: single dose for three days, then another dose for three more days; for Avg (3 + 6): test concentration or dose not given here; for Log2 (fold): test concentration or dose not given here
[3] = log2 of the Day 3 fold difference in luciferase relative to DMSO controls
[4] = luciferase activity relative to DMSO controls, single dose of drug for three days, 96-well plates

SMILES	expression of puc-lacZ reporter (JNK signaling) (JNK signaling)	expression of puc-lacZ reporter (JNK signaling) (JNK signaling; listed as methotrexate)	expression of upd3-GFP / Upd-3 reporter (JAK-STAT signaling) (JAK-STAT signaling)	expression of upd3-GFP / Upd-3 reporter (JAK-STAT signaling) (JAK-STAT signaling; listed as methotrexate)	Fold [1] [fold]	Log2 (fold) (luciferase activity, log2 of the fold difference relative to DMSO controls) [1]	Fold (luciferase activity, fold difference relative to DMSO controls) [1]	Avg (3 + 6) [2] [fold]	Log2 (fold) [2, 3]	Day 3 Fold [2, 4] [fold]	Day 6 Fold [2] [fold]	Day 3 Fold ([2]; po, 72 h) [fold]	Log2 (fold) ([2]; po, 72 h)
CN(Cc1cnc2nc(N)nc(N)c2n1)c1ccc(C(=O)N[C@@H](CCC(=O)O)C(=O)O)cc1 [Methotrexate]	no effect on the expression of any of the reporters	expressed neither reporter	no effect on the expression of any of the reporters	expressed neither reporter	0.160	−2.648	0.160	0.094	−3.231	0.107	0.081		
O=C1CCC(N2C(=O)c3ccccc3C2=O)C(=O)N1 (stereo not drawn) [Thalidomide]						−0.252	0.839	1.008	0.136	1.099	0.918		
CO[C@H]1C[C@@H]2CC[C@@H](C)[C@@](O)(O2)C(=O)C(=O)N2CCCC[C@H]2C(=O)O[C@H]([C@H](C)C[C@@H]2CC[C@@H](O)[C@H](OC)C2)CC(=O)[C@H](C)/C=C(\C)[C@@H](O)[C@@H](OC)C(=O)[C@H](C)C[C@H](C)/C=C/C=C/C=C/1C [Rapamycin]					0.429	−1.220	0.429	0.369	−1.216	0.431	0.308		
Cc1c2oc3c(C)ccc(C(=O)N[C@@H]4C(=O)N[C@H](C(C)C)C(=O)N5CCC[C@H]5C(=O)N(C)CC(=O)N(C)[C@@H](C(C)C)C(=O)O[C@@H]4C)c3nc-2c(C(=O)N[C@@H]2C(=O)N[C@H](C(C)C)C(=O)N3CCC[C@H]3C(=O)N(C)CC(=O)N(C)[C@@H](C(C)C)C(=O)O[C@@H]2C)c(N)c1=O [Dactinomycin] (I: T[dV]P[Sar][NMeV] / II: T[dV]P[Sar][NMeV]; ester I:1-I:C, II:1-II:C; linker I:N-II:N via Actinocin(9to1))					0.438	−1.192	0.438	0.119	−3.068	0.119			
CO[C@@]12[C@H](COC(N)=O)C3=C(C(=O)C(C)=C(N)C3=O)N1C[C@@H]1N[C@@H]12 [Mitomycin C]					0.470	−1.088	0.470	0.204				0.279	−1.842
COc1cc([C@@H]2c3cc4c(cc3[C@@H](O[C@@H]3O[C@@H]5CO[C@@H](C)O[C@H]5[C@H](O)[C@H]3O)[C@H]3COC(=O)[C@H]23)OCO4)cc(OC)c1O [Etoposide]						−0.532	0.691	0.817	−0.134	0.911	0.722		
